From ChEMBL document CHEMBL1201862, “PubChem BioAssay data set” (2004)
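Method: 48-hour compound exposure of cells in 96-well plates, five concentrations, linear interpolation of endpoints. GI50: concentration for 50% inhibition of growth.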 Active and inactive are the calls of the source. Rule as the data show it: active = GI50 up to about 1.1 µM and inactive = higher.

Tests used:
Experiment in all cases: NCI anticancer screen, dose series, 48 h
COLO 205 = system: COLO 205
HOP-92 = system: HOP-92
KM12 = system: KM12
SNB-19 = system: SNB-19
UO-31 = system: UO-31
OVCAR-4 = system: OVCAR-4
A498 = system: A498
HL-60 = system: HL-60
SK-OV-3 = system: SK-OV-3
LOX IMVI = system: LOX IMVI
SF-295 = system: SF-295
HCT-15 = system: HCT-15
SK-MEL-2 = system: SK-MEL-2
ACHN = system: ACHN
SN12C = system: SN12C
786-0 = system: 786-0
SNB-75 = system: SNB-75
NCI-H460 = system: NCI-H460
Malme-3M = system: Malme-3M
RXF 393 = system: RXF 393

SMILES | GI50 (COLO 205) | GI50 (HOP-92) | GI50 (KM12) | GI50 (SNB-19) | GI50 (UO-31) | GI50 (OVCAR-4) | GI50 (A498) | GI50 (HL-60) | GI50 (SK-OV-3) | GI50 (LOX IMVI) | GI50 (SF-295) | GI50 (HCT-15) | GI50 (SK-MEL-2) | GI50 (ACHN) | GI50 (SN12C) | GI50 (786-0) | GI50 (SNB-75) | GI50 (NCI-H460) | GI50 (Malme-3M) | GI50 (RXF 393)
O=c1oc2ccccc2cc1-c1csc(Nc2cc(Cl)cc(Cl)c2)n1 | 18 µM (inactive) | > 39 µM (inactive) | > 27.5 µM (inactive) | > 24.2 µM (inactive) | 2.77 µM (inactive) | 1.79 µM (inactive) | 4.94 µM (inactive) | > 90.8 µM (inactive) | > 34.6 µM (inactive) | 2.82 µM (inactive) | 6.35 µM (inactive) | > 100 µM | > 100 µM (inactive) | 1.9 µM (inactive) | 6.31 µM (inactive) | 2.27 µM (inactive) | 2.71 µM (inactive) | 6.64 µM (inactive) | 11.7 µM (inactive) | 5.14 µM (inactive)
COc1cc(C(=O)NC2CCc3cc(OC)c(OC)c(OC)c3-c3ccc(OC)c(=O)cc32)cc(OC)c1OC (stereo not given) | 0.0585 µM (active) | 0.0592 µM (active) | 0.036 µM (active) | 0.138 µM (active) | 10.9 µM (inactive) | 15.8 µM (inactive) | 0.274 µM (active) | 0.0259 µM (active) | 0.231 µM (active) | 0.0424 µM (active) | 0.153 µM (active) | 3.53 µM | 0.0935 µM (active) | 2.65 µM (inactive) | 0.199 µM (active) | 0.288 µM (active) | 0.13 µM (active) | 0.143 µM (active) | 0.141 µM (active) | 0.466 µM (active)
O=C(O)c1ccc(NCc2nc3cc4ccccc4cc3[nH]2)cc1 | > 100 µM (inactive) | > 100 µM (inactive) | > 100 µM (inactive) | > 100 µM (inactive) | > 100 µM (inactive) | > 90.4 µM (inactive) | > 100 µM (inactive) | > 20.5 µM (inactive) | > 100 µM (inactive) | > 100 µM (inactive) | > 100 µM (inactive) | 26.7 µM | 24.7 µM (inactive) | > 100 µM (inactive) | > 88.5 µM (inactive) | > 100 µM (inactive) | 98.6 µM (inactive) | > 100 µM (inactive) | 0.0462 µM (active) | > 100 µM (inactive)
CC1=NN(C(=O)CC(=O)Nc2ccccc2C)C(=O)C1/N=N\c1ccc(S(=O)(=O)c2ccc(/N=N/C3C(=O)N(C(=O)CC(=O)Nc4ccccc4C)N=C3C)cc2)cc1 (stereo not given) | > 100 µM (inactive) | > 100 µM (inactive) | > 100 µM (inactive) | > 100 µM (inactive) | > 100 µM (inactive) | > 100 µM (inactive) | > 100 µM (inactive) | > 100 µM (inactive) | > 100 µM (inactive) | > 100 µM (inactive) | > 100 µM (inactive) | > 100 µM | > 100 µM (inactive) | > 100 µM (inactive) | > 100 µM (inactive) | > 100 µM (inactive) | > 100 µM (inactive) | > 100 µM (inactive) | > 100 µM (inactive) | > 100 µM (inactive)
CC1CC[C@@H](C(C)C)[C@H](Oc2nnc(C3OC(CO)C(O)C3O)o2)C1 (stereo not given in full) | > 100 µM (inactive) | > 100 µM (inactive) | > 100 µM (inactive) | > 100 µM (inactive) | > 100 µM (inactive) | > 100 µM (inactive) | > 100 µM (inactive) | > 100 µM (inactive) | > 100 µM (inactive) | > 100 µM (inactive) | > 100 µM (inactive) | > 100 µM | > 100 µM (inactive) | > 100 µM (inactive) | > 100 µM (inactive) | > 100 µM (inactive) | > 100 µM (inactive) | > 100 µM (inactive) | > 100 µM (inactive) | > 100 µM (inactive)
CCOC(=O)NC(=O)c1cn(CCN2CCN(C(=O)NCCCCCCNC(=O)N3CCN(CCn4cc(C(=O)NC(=O)OCC)c(=O)[nH]c4=O)CC3)CC2)c(=O)[nH]c1=O | > 100 µM (inactive) | > 100 µM (inactive) | > 100 µM (inactive) | > 100 µM (inactive) | > 100 µM (inactive) | > 100 µM (inactive) | > 100 µM (inactive) | > 100 µM (inactive) | > 100 µM (inactive) | > 100 µM (inactive) | > 100 µM (inactive) | > 100 µM | > 100 µM (inactive) | > 100 µM (inactive) | > 100 µM (inactive) | > 100 µM (inactive) | > 100 µM (inactive) | > 100 µM (inactive) | > 100 µM (inactive) | > 100 µM (inactive)
NS(=O)(=O)c1cc2c(cc1Cl)NC(C(=O)c1cc(=O)c3ccc(O)cc3o1)=NS2(=O)=O | > 100 µM (inactive) | > 100 µM (inactive) | > 100 µM (inactive) | > 100 µM (inactive) | > 100 µM (inactive) | > 100 µM (inactive) | > 100 µM (inactive) | > 100 µM (inactive) | > 100 µM (inactive) | > 100 µM (inactive) | > 100 µM (inactive) | > 100 µM | > 100 µM (inactive) | > 100 µM (inactive) | > 100 µM (inactive) | > 100 µM (inactive) | 97.7 µM (inactive) | > 100 µM (inactive) | > 100 µM (inactive) | > 100 µM (inactive)
O=C(O)/C=C\C(=O)Nc1ccc2c(c1)C(=O)c1cc(F)ccc1-2 | > 100 µM (inactive) | > 100 µM (inactive) | > 100 µM (inactive) | > 100 µM (inactive) | > 100 µM (inactive) | > 100 µM (inactive) | > 100 µM (inactive) | > 100 µM (inactive) | > 100 µM (inactive) | > 100 µM (inactive) | > 100 µM (inactive) | > 100 µM | > 100 µM (inactive) | > 100 µM (inactive) | > 100 µM (inactive) | > 100 µM (inactive) | > 100 µM (inactive) | > 100 µM (inactive) | > 100 µM (inactive) | > 100 µM (inactive)
COC(=O)C(=O)c1cc2ccccc2n1S(=O)(=O)c1ccccc1 | > 100 µM (inactive) | > 100 µM (inactive) | > 100 µM (inactive) | > 100 µM (inactive) | > 100 µM (inactive) | > 100 µM (inactive) | > 100 µM (inactive) | > 100 µM (inactive) | > 100 µM (inactive) | > 100 µM (inactive) | > 100 µM (inactive) | > 100 µM | > 100 µM (inactive) | > 100 µM (inactive) | > 100 µM (inactive) | > 100 µM (inactive) | 84.5 µM (inactive) | > 100 µM (inactive) | > 100 µM (inactive) | > 100 µM (inactive)
O=C1C(CO)=C(CO)C(=O)c2c(O)ccc(O)c21 | 0.0408 µM (active) | 0.261 µM (active) | 1.61 µM (inactive) | 2.88 µM (inactive) | 1 µM (active) | 0.234 µM (active) | 1.69 µM (inactive) | 0.043 µM (active) | 7.23 µM (inactive) | 0.252 µM (active) | 1.69 µM (inactive) | 0.214 µM | 1.05 µM (active) | 0.337 µM (active) | 0.287 µM (active) | 0.361 µM (active) | 0.388 µM (active) | 0.923 µM (active) | 0.217 µM (active) | 0.39 µM (active)
CN(C)CCCN1CCC2(CCC(C(C)(C)C)CC2)CC1 | 1.51 µM (inactive) | 3.18 µM (inactive) | 2.38 µM (inactive) | 3.27 µM (inactive) | 1.56 µM (inactive) | 6.31 µM (inactive) | 2 µM (inactive) | 0.603 µM (active) | 9.29 µM (inactive) | 1.42 µM (inactive) | 2.03 µM (inactive) | 2.22 µM | 1.75 µM (inactive) | 7.05 µM (inactive) | 7.35 µM (inactive) | 1.54 µM (inactive) | 2.08 µM (inactive) | 0.8 µM (active) | 1.89 µM (inactive) | 1.6 µM (inactive)
COc1cc2[nH]c3c(c2cc1OC)CCN[C@@]31CC[C@@]2(CC3c4c(cc(OC)c(O)c42)CCN3C)C[C@@H]1OC (stereo not given in full) | 16.6 µM (inactive) | 22.2 µM (inactive) | 42.6 µM (inactive) | > 81.1 µM (inactive) | 20.6 µM (inactive) | 29 µM (inactive) | 32 µM (inactive) | 16.3 µM (inactive) | 73.6 µM (inactive) | 18.8 µM (inactive) | 21.2 µM (inactive) | 30.3 µM | 17.8 µM (inactive) | 46 µM (inactive) | 71.9 µM (inactive) | 50.7 µM (inactive) | 18.3 µM (inactive) | 39.4 µM (inactive) | 18.5 µM (inactive) | 21 µM (inactive)
Cc1ccc2c(O)cc(-c3ccc(Cl)s3)nc2n1 | 6.18 µM (inactive) | > 58.1 µM (inactive) | 0.488 µM (active) | 1.43 µM (inactive) | 0.245 µM (active) | 16.3 µM (inactive) | 4.7 µM (inactive) | 0.203 µM (active) | 1.83 µM (inactive) | 0.662 µM (active) | 0.697 µM (active) | 0.405 µM | 5.18 µM (inactive) | 8.79 µM (inactive) | 1.55 µM (inactive) | 1.21 µM (inactive) | 1.4 µM (inactive) | 0.564 µM (active) | 0.632 µM (active) | 2.76 µM (inactive)
COc1ccc(/C=C/C(=O)c2c(-c3ccccc3)nn(C)c(=O)c2N2CC2C)cc1 (stereo not given) | 34.3 µM (inactive) | 29 µM (inactive) | 30.3 µM (inactive) | 37.8 µM (inactive) | 70.3 µM (inactive) | 27.9 µM (inactive) | 23.9 µM (inactive) | 17.5 µM (inactive) | 30.2 µM (inactive) | 16.3 µM (inactive) | 33.8 µM (inactive) | 24.3 µM | 21.8 µM (inactive) | 36.2 µM (inactive) | 37 µM (inactive) | 36.4 µM (inactive) | 24.8 µM (inactive) | 27.5 µM (inactive) | 35.7 µM (inactive) | 27.9 µM (inactive)
